Ten compounds from article PMC11876601 (Molecular Systems Biology, 2025) can be followed below.

Read-outs that look alike come from different tables or passages of the source. Some results are limits rather than exact numbers.

Common to all, as to experiment: cells
In experiment [1] the test system is MiaPaCa-2. More on the design: ATPlite luminescence viability of PDAC cell lines, 11-dose single-agent curves, 4-parameter fit. The following applies: Homo sapiens, MIA PaCa-2, 72 h, read-out: EC50 [nM]. In short, it runs like this: (§1)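 Drug-combination screening used cells plated at 1000 to 5000 per well one day before treatment. Final DMSO was 0.2%. Each plate held untreated negative-control wells and 5 µM staurosporine positive-control wells.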

Experiment [2] deals with Capan-1. The arrangement: ATPlite luminescence viability of PDAC cell lines, 11-dose single-agent curves, 4-parameter fit. The following applies: Homo sapiens, CAPAN-1, 72 h, read-out: EC50 [nM]. In short, it runs like this: as §1
Experiment [3] has as its system Suit2-07. More on the design: ATPlite luminescence viability of PDAC cell lines, 11-dose single-agent curves, 4-parameter fit. The following applies: 72 h, read-out: EC50 [nM]. A digest of the protocol:
as §1

Experiment [4] deals with FAMPAC. The arrangement: ATPlite luminescence viability of PDAC cell lines, 11-dose single-agent curves, 4-parameter fit. The following applies: 72 h, read-out: EC50 [nM]. A digest of the protocol:
as §1

The test system of experiment [5] is Dan-G. The arrangement: ATPlite luminescence viability of PDAC cell lines, 11-dose single-agent curves, 4-parameter fit. The following applies: 72 h, read-out: EC50 [nM]. In short, it runs like this:
as §1

Experiment [6] has as its system PANC-1. More on the design: ATPlite luminescence viability of PDAC cell lines, 11-dose single-agent curves, 4-parameter fit. The following applies: Homo sapiens, PANC-1, 72 h, read-out: EC50 [nM]. A digest of the protocol:
as §1

Experiment [7] has as its system PSN-1. The arrangement: ATPlite luminescence viability of PDAC cell lines, 11-dose single-agent curves, 4-parameter fit. The following applies: Homo sapiens, PSN1, 72 h, read-out: EC50 [nM]. A digest of the protocol: as §1
In experiment [8] the test system is PaTu-8988-T. More on the design: ATPlite luminescence viability of PDAC cell lines, 11-dose single-agent curves, 4-parameter fit. The following applies: Homo sapiens, PaTu 8988t, 72 h, read-out: EC50 [nM]. In short, it runs like this: as §1
In experiment [9] the test system is Colo-357. More on the design: ATPlite luminescence viability of PDAC cell lines, 11-dose single-agent curves, 4-parameter fit. The following applies: Homo sapiens, COLO357, 72 h, read-out: EC50 [nM]. A digest of the protocol: as §1
For experiment [10], the system named is AsPC-1. More on the design: ATPlite luminescence viability of PDAC cell lines, 11-dose single-agent curves, 4-parameter fit. The following applies: Homo sapiens, ASPC1, 72 h, read-out: EC50 [nM]. In short, it runs like this:
as §1

The test system of experiment [11] is HuP-T4. The arrangement: Viability of PDAC cell lines, ATPlite luminescence, 11-dose single-agent curve fit. The following applies: Homo sapiens, HuP-T4, 72 h, read-out: EC50 [nM]. A digest of the protocol: (§2)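 screening used cells plated at 1000 to 5000 per well one day before treatment. Final DMSO was 0.2%. Each plate held untreated negative-control wells and 5 µM staurosporine positive-control wells.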

For experiment [12], the system named is HPDE. The arrangement: Viability of PDAC cell lines, ATPlite luminescence, 11-dose single-agent curve fit. The following applies: HPDE, 72 h, read-out: EC50 [nM]. In short, it runs like this: as §2
In experiment [13] the test system is MiaPaCa-2. More on the design: Viability of PDAC cell lines, ATPlite luminescence, 11-dose single-agent curve fit. The following applies: Homo sapiens, MIA PaCa-2, 72 h, read-out: EC50 [nM]. In short, it runs like this:
as §2

Experiment [14] relates to Suit2-07. The arrangement: Viability of PDAC cell lines, ATPlite luminescence, 11-dose single-agent curve fit. The following applies: 72 h, read-out: EC50 [nM]. In short, it runs like this: as §2
The test system of experiment [15] is FAMPAC. More on the design: Viability of PDAC cell lines, ATPlite luminescence, 11-dose single-agent curve fit. The following applies: 72 h, read-out: EC50 [nM]. In short, it runs like this: as §2
In experiment [16] the test system is Dan-G. The arrangement: Viability of PDAC cell lines, ATPlite luminescence, 11-dose single-agent curve fit. The following applies: 72 h, read-out: EC50 [nM]. In short, it runs like this:
as §2

Experiment [17] has as its system PANC-1. More on the design: Viability of PDAC cell lines, ATPlite luminescence, 11-dose single-agent curve fit. The following applies: Homo sapiens, PANC-1, 72 h, read-out: EC50 [nM]. In short, it runs like this: as §2
Experiment [18] deals with PSN-1. More on the design: Viability of PDAC cell lines, ATPlite luminescence, 11-dose single-agent curve fit. The following applies: Homo sapiens, PSN1, 72 h, read-out: EC50 [nM]. In short, it runs like this: as §2
The test system of experiment [19] is BxPC-3. The arrangement: Viability of PDAC cell lines, ATPlite luminescence, 11-dose single-agent curve fit. The following applies: Homo sapiens, BXPC-3, 72 h, read-out: EC50 [nM]. A digest of the protocol:
as §2

The test system of experiment [20] is PaTu-8988-T. The arrangement: Viability of PDAC cell lines, ATPlite luminescence, 11-dose single-agent curve fit. The following applies: Homo sapiens, PaTu 8988t, 72 h, read-out: EC50 [nM]. A digest of the protocol: as §2
In experiment [21] the test system is AsPC-1. The arrangement: Viability of PDAC cell lines, ATPlite luminescence, 11-dose single-agent curve fit. The following applies: Homo sapiens, ASPC1, 72 h, read-out: EC50 [nM]. In short, it runs like this: as §2
Experiment [22] deals with BxPC-3. More on the design: ATPlite luminescence viability of PDAC cell lines, 11-dose single-agent curves, 4-parameter fit. The following applies: Homo sapiens, BXPC-3, 72 h, read-out: EC50 [nM]. In short, it runs like this:
as §1

Experiment [23] concerns HPDE. The arrangement: ATPlite luminescence viability of PDAC cell lines, 11-dose single-agent curves, 4-parameter fit. The following applies: HPDE, 72 h, read-out: EC50 [nM]. A digest of the protocol:
as §1

For experiment [24], the system named is Colo-357. The arrangement: Viability of PDAC cell lines, ATPlite luminescence, 11-dose single-agent curve fit. The following applies: Homo sapiens, COLO357, 72 h, read-out: EC50 [nM]. A digest of the protocol: as §2
Experiment [25] relates to Capan-1. The arrangement: Viability of PDAC cell lines, ATPlite luminescence, 11-dose single-agent curve fit. The following applies: Homo sapiens, CAPAN-1, 72 h, read-out: EC50 [nM]. In short, it runs like this:
as §2

As for `O=C1NC(=O)[C@@H](c2cn3c4c(cccc24)CCC3)[C@@H]1c1c[nH]c2ccccc12` [Tivantinib], the 50% effective concentration (EC50) (in general, the midpoint of the concentration-response curve) in experiment [1] was determined as 313 nM; in experiment [2], 603 nM; in [3], 191 nM; in experiment [4] it was 317 nM; in experiment [5], 412 nM; in experiment [6], 389 nM. In addition, the EC50 in experiment [7] was 215 nM; in experiment [8], 347 nM; in experiment [9] it was 536 nM; in experiment [10], 346 nM; in experiment [11] it was > 10000 nM; in experiment [12] it was 143 nM.

On to `O=C(Nc1ccc(OC(F)(F)Cl)cc1)c1cnc(N2CC[C@@H](O)C2)c(-c2cc[nH]n2)c1` [Asciminib], for which the EC50 was 3820 nM in experiment [2]; > 10000 nM in experiment [9]; 2770 nM in experiment [13]; 3860 nM in [11]; 3.54 nM in experiment [14]; > 10000 nM in experiment [15]. For the same compound, the EC50 in experiment [16] was 7610 nM; in [17] it was 4520 nM; in experiment [18], 1730 nM; in [19], 794 nM; in experiment [12] it was 4830 nM; in experiment [20], 1350 nM. The EC50 in experiment [21] was 1470 nM.

Take `CNC(=O)c1cc(Oc2ccc(NC(=O)Nc3ccc(Cl)c(C(F)(F)F)c3)cc2)ccn1` [Sorafenib]: the concentration giving a half-maximal response (EC50) in experiment [1] is > 10000 nM; in [2], 8320 nM; in experiment [3], 9770 nM; in experiment [4], > 10000 nM; in experiment [5] it was 7810 nM; in experiment [7], 3820 nM. Moreover, the EC50 was 10200 nM in experiment [22]; 7960 nM in experiment [23]; > 10000 nM in experiment [8]; 10200 nM in experiment [11]; 7780 nM in experiment [17]; 4370 nM in experiment [24]. In addition, the EC50 in experiment [21] is > 10000 nM.

For `C[C@@H](Oc1cc(-c2cnn(C3CCNCC3)c2)cnc1N)c1c(Cl)ccc(F)c1Cl` [Crizotinib], the EC50 in [1] is 840 nM; in experiment [3] it was 2260 nM; in experiment [4] it was 5990 nM; in [5], 2500 nM; in [6], > 10000 nM; in [7], 10200 nM. The half-maximal effective concentration (EC50) was > 10000 nM in [22]; 8110 nM in [23]; > 10000 nM in experiment [8]; 3820 nM in experiment [9]; 7880 nM in [10]; 1780 nM in [25]. Besides, the EC50 in experiment [11] was found to be 2760 nM.

Take `COc1cc2nccc(Oc3ccc(NC(=O)Nc4cc(C)on4)c(Cl)c3)c2cc1OC` [Tivozanib]: the EC50 in [1] was > 10000 nM; in experiment [2], 9830 nM; in [4], > 10000 nM; in [5], > 10000 nM; in [7], 5040 nM; in [22], > 10000 nM. In addition, the EC50 in experiment [8] was > 10000 nM; in experiment [9], 6590 nM; in [11] it was 4120 nM; in experiment [14], > 10000 nM; in experiment [17], > 10000 nM; in experiment [12], > 10000 nM. Besides, the EC50 in experiment [21] came to 6600 nM.

Regarding `CCCCCCCCCCCCCCCCCCOP(=O)([O-])OC1CC[N+](C)(C)CC1` [Perifosine], the EC50 in experiment [1] was determined as 2990 nM; in experiment [3] it was 2140 nM; in [4], 3030 nM; in [6], 2590 nM; in experiment [7], 2340 nM; in experiment [23], 1280 nM. Also, the concentration giving a half-maximal response (EC50) in experiment [9] was > 10000 nM; in experiment [25] it was > 10000 nM; in [11] it was 0.04 nM; in experiment [16] it was > 10000 nM; in experiment [19], 1410 nM; in experiment [20] it was 9320 nM. The EC50 in [21] was > 10000 nM.

Turning to `CNC(=O)c1cc(Oc2ccc(NC(=O)Nc3ccc(Cl)c(C(F)(F)F)c3)c(F)c2)ccn1` [Regorafenib], the 50% effective concentration (EC50) in experiment [1] was 4480 nM; in experiment [2], 6350 nM; in experiment [3], > 10000 nM; in experiment [4], > 10000 nM; in experiment [5], 4480 nM; in experiment [6], > 10000 nM. For the same compound, the concentration for a half-maximal effect (EC50) in experiment [7] is 1430 nM; in [22], 7410 nM; in experiment [23], 9210 nM; in [8] it was > 10000 nM; in [10], 2150 nM; in [11], > 10000 nM. For the same compound, the EC50 in experiment [24] was found to be 7480 nM.

With `CN1CCC(COc2cnc(-c3cccc(Cn4nc(-c5cccc(C#N)c5)ccc4=O)c3)nc2)CC1` [Tepotinib], the 50% effective concentration (EC50) in [1] was 7010 nM; in experiment [2] it was 23.4 nM; in experiment [3], 7810 nM; in experiment [4], > 10000 nM; in experiment [5], 8.91 nM; in experiment [6], 3.11 nM. Besides, the EC50 in experiment [7] was 4160 nM; in [22], 10300 nM; in experiment [8] it was 6390 nM; in experiment [9], 11.5 nM; in [10], > 10000 nM; in experiment [11], 268 nM. The EC50 in experiment [12] was found to be 7650 nM.

Turning to `CN1CCN(CCOc2cc(OC3CCOCC3)c3c(Nc4c(Cl)ccc5c4OCO5)ncnc3c2)CC1` [Saracatinib], the concentration giving a half-maximal response (EC50) in experiment [1] came out at 51.6 nM; in experiment [2], 2210 nM; in [3], 1340 nM; in experiment [4], 4910 nM; in experiment [5] it was 1160 nM; in experiment [22], 863 nM. The EC50 in [23] is 1430 nM; in [11] it was > 10000 nM; in experiment [17], 142 nM; in experiment [18], 4260 nM; in experiment [20] it was 244 nM; in experiment [24], 869 nM. Moreover, the EC50 in experiment [21] came out at 4140 nM.

Consider `COc1cc(OC)c(/C=C/S(=O)(=O)Cc2ccc(OC)c(NCC(=O)O)c2)c(OC)c1` [Rigosertib], for which the EC50 in experiment [1] came to 324 nM; in experiment [2] it was 178 nM; in [3] it was 2170 nM; in experiment [4], 28.2 nM; in [5] it was 66 nM; in experiment [6], 313 nM. In addition, the concentration giving a half-maximal response (EC50) in experiment [7] amounted to 86.5 nM; in experiment [22], 63.2 nM; in experiment [8] it was 607 nM; in [9], 256 nM; in [10], 863 nM; in experiment [11] it was 809 nM. Moreover, in [12], the EC50 was determined as 48.2 nM.
